The target in one test is Coagulation factor X (Homo sapiens, UniProt P00742). The experiment in a line: Inhibitory concentration against human coagulation factor Xa.
Test [1] deals with Coagulation factor VII/tissue factor (Homo sapiens, UniProt P08709). The experiment in a line: Inhibitory concentration against human coagulation factor VIIa/tissue factor cleavage of fluorogenic substrate SN17c at 37 degree C for 15 minutes. In kind it is protein-complex assay.
Test [2] is described as follows: In vitro inhibitory activity against prolonging prothrombin time as anticoagulant effect on extrinsic coagulation pathway. In kind it is functional. Conditions: Homo sapiens.

Coagulation factor X, sequence (P00742 41-179 limits assumed): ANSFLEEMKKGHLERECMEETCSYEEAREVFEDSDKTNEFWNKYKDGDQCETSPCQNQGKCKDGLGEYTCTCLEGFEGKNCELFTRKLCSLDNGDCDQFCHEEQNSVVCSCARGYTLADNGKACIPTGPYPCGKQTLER
Coagulation factor X, sequence (P00742 235-488 limits assumed): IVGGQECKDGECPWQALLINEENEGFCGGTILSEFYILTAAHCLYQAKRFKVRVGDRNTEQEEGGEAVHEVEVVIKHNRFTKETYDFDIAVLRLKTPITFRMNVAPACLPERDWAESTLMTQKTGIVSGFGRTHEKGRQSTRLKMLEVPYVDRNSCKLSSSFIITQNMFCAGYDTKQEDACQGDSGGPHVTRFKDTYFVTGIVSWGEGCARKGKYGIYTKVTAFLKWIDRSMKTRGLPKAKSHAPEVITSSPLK
Coagulation factor VII/tissue factor, sequence (P08709 61-212 limits assumed): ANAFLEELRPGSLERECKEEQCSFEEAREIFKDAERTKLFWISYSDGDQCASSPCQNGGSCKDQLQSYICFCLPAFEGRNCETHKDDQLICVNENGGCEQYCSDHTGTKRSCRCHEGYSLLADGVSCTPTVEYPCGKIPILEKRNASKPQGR
Coagulation factor VII/tissue factor, sequence (P08709 213-466 limits assumed): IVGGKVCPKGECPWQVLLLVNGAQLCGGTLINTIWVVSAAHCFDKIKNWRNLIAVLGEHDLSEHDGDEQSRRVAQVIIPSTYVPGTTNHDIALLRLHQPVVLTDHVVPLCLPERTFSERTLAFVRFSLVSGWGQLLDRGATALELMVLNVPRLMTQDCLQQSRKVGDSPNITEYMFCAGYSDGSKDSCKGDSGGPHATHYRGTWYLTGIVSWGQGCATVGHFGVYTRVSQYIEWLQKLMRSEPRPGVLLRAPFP
Coagulation factor VII/tissue factor, sequence (P13726 33-295 partner limits assumed): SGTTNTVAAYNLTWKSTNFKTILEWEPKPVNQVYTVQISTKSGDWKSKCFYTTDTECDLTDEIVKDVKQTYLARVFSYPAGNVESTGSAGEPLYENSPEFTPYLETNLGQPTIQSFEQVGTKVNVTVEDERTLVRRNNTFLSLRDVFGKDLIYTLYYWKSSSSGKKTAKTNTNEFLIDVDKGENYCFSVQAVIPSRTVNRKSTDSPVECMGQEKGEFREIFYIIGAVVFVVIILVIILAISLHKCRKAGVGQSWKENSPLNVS

For the molecule `CC(CCc1ccccc1)Nc1c(F)c(Oc2cccc(C(=N)N)c2)nc(Oc2ccc(O)cc2C(=O)O)c1F` (stereo unspecified), the concentration for half-maximal inhibition (IC50) (as a rule, the concentration that inhibits the measured activity by half) on Coagulation factor X was determined as 11000 nM; in test [1], 560 nM.
With `C[C@H](CCc1ccccc1)Nc1c(F)c(Oc2cccc(C(=N)N)c2)nc(Oc2ccccc2C(=O)O)c1F`, the values for the half-inhibitory concentration (IC50) (at Coagulation factor X; in test [1]) were 51000 nM and 45 nM, respectively. In test [2], the Concentration prolonging prothrombin time was found to be 29 µM.
In test [1], `CC(CCc1ccccc1)Nc1c(F)c(Oc2cccc(C(=N)N)c2)nc(Oc2ccc(C(=O)NCc3ccc(O)c(O)c3)cc2C(=O)O)c1F` (stereo unspecified) showed an IC50 of 140 nM.
Regarding `COc1ccc(Oc2nc(Oc3cccc(C(=N)N)c3)c(F)c(NC(C)CCc3ccccc3)c2F)c(C(=O)O)c1` (stereo unspecified), the figures for the IC50 (against Coagulation factor X; in test [1]) were 11000 nM and 39 nM, respectively.
As for `CCC(CO)NC(=O)c1ccc(Oc2nc(Oc3cccc(C(=N)N)c3)c(F)c(NC(C)CCc3ccccc3)c2F)c(C(=O)O)c1` (stereo unspecified), the IC50 at Coagulation factor X stood at 5700 nM; in test [1] it was 23 nM. In test [2], this molecule came in with a Concentration prolonging prothrombin time of 10 µM.
Consider `CC(CCc1ccccc1)Nc1c(F)c(Oc2cccc(C(=N)N)c2)nc(Oc2ccc(OC(C)C)cc2C(=O)O)c1F` (stereo unspecified), for which the values for the half-inhibitory concentration (IC50) (against Coagulation factor X; in test [1]) were 12000 nM and 17 nM, respectively. This molecule also showed a Concentration prolonging prothrombin time in test [2] of 52 µM.
`CC(CCc1ccccc1)Nc1c(F)c(Oc2cccc(C(=N)N)c2)nc(Oc2ccccc2C(=O)O)c1F` (stereo unspecified): half-maximal inhibition against Coagulation factor X (IC50) required 55000 nM. Further, the Concentration prolonging prothrombin time in test [2] amounted to 35 µM.
In test [2], `CC(CCc1ccccc1)Nc1c(F)c(Oc2cccc(C(=N)N)c2)nc(Oc2ccc(N(C)C)cc2C(=O)O)c1F` (stereo in doubt; 28) [listing 1 of 2 here] came in with a Concentration prolonging prothrombin time of 16 µM.
Take `CC(CCc1ccccc1)Nc1c(F)c(Oc2cccc(C(=N)N)c2)nc(Oc2ccc(C(=O)NCCCO)cc2C(=O)O)c1F` (stereo unspecified): the Concentration prolonging prothrombin time in test [2] turned out to be 12 µM. In test [1], the IC50 came to 71 nM.
Consider `CCCOc1ccc(Oc2nc(Oc3cccc(C(=N)N)c3)c(F)c(NC(C)CCc3ccccc3)c2F)c(C(=O)O)c1` (stereo unspecified), for which the results for the IC50 (at Coagulation factor X; in test [1]) were 26000 nM and 19 nM, respectively. Moreover, the Concentration prolonging prothrombin time in test [2] was determined as 95 µM.
As to `Cc1c(F)c(Oc2cccc(C(=N)N)c2)nc(Oc2ccccc2C(=O)O)c1F`, the concentration for half-maximal inhibition (IC50) at Coagulation factor X is under 10000 nM; in test [1], 1200 nM.
The corresponding values for `Cc1ccc(Oc2nc(Oc3cccc(C(=N)N)c3)c(F)c(NC(C)CCc3ccccc3)c2F)c(C(=O)O)c1` (stereo unspecified) are 29000 nM and 20 nM.
In the case of `CC(CCc1ccccc1)Nc1c(F)c(Oc2cccc(C(=N)N)c2)nc(Oc2ccc(C(C)(C)C)cc2C(=O)O)c1F` (stereo unspecified), the results for the half-inhibitory concentration (IC50) (at Coagulation factor X; in test [1]) were 3300 nM and 21 nM, respectively. This molecule displayed a Concentration prolonging prothrombin time in test [2] of 24 µM.
For `CC(CCc1ccccc1)Nc1c(F)c(Oc2cccc(C(=N)N)c2)nc(Oc2ccc(C(C)C)cc2C(=O)O)c1F` (stereo unspecified), the half-inhibitory concentration (IC50) against Coagulation factor X came out at 4800 nM; in test [1], 15 nM. In test [2], the Concentration prolonging prothrombin time was determined as 28 µM.
In the case of `CC(CCc1ccccc1)Nc1c(F)c(Oc2cccc(C(=N)N)c2)nc(Oc2ccc(C(=O)NCc3cccc(O)c3)cc2C(=O)O)c1F` (stereo unspecified), the figures for the concentration for half-maximal inhibition (IC50) (on Coagulation factor X; in test [1]) were 4100 nM and 39 nM, respectively. In test [2], this molecule came in with a Concentration prolonging prothrombin time of 49 µM.
Turning to `CC(CCc1ccccc1)Nc1c(F)c(Oc2cccc(C(=N)N)c2)nc(Oc2ccc(N(C)C)cc2C(=O)O)c1F` (stereo in doubt; 19) [listing 1 of 2 here], in test [2], the Concentration prolonging prothrombin time is 49 µM.
Consider `CC(C)CNC(=O)c1ccc(Oc2nc(Oc3cccc(C(=N)N)c3)c(F)c(NC(C)CCc3ccccc3)c2F)c(C(=O)O)c1` (stereo unspecified), for which the IC50 against Coagulation factor X worked out at 9600 nM; in test [1], 10 nM. Further, in test [2], the Concentration prolonging prothrombin time is 22 µM.
The corresponding values for `CCN(CC)c1ccc(Oc2nc(Oc3cccc(C(=N)N)c3)c(F)c(NC(C)CCc3ccccc3)c2F)c(C(=O)O)c1` (stereo unspecified) are 9600 nM, 16 nM and 83 µM.
With `CC(CCc1ccccc1)Nc1c(F)c(Oc2cccc(C(=N)N)c2)nc(Oc2ccc(N(C)C)cc2C(=O)O)c1F` (stereo in doubt; 19) [listing 2 of 2 here], the IC50 at Coagulation factor X came to 6800 nM; in test [1] it was 13 nM.
Consider `CC(CCc1ccccc1)Nc1c(F)c(Oc2cccc(C(=N)N)c2)nc(Oc2ccc(C(=O)NC(CO)CO)cc2C(=O)O)c1F` (stereo unspecified), for which the IC50 against Coagulation factor X was found to be 13000 nM; in test [1], 46 nM. Besides, in test [2], the Concentration prolonging prothrombin time amounted to 9 µM.
With `CC(CCc1ccccc1)Nc1c(F)c(Oc2cccc(C(=N)N)c2)nc(Oc2ccc(N(C)C)cc2C(=O)O)c1F` (stereo in doubt; 28) [listing 2 of 2 here], the values for the 50% inhibitory concentration (IC50) (at Coagulation factor X; in test [1]) were 4500 nM and 15 nM, respectively.
Turning to `CCOc1ccc(Oc2nc(Oc3cccc(C(=N)N)c3)c(F)c(NC(C)CCc3ccccc3)c2F)c(C(=O)O)c1` (stereo unspecified), the IC50 at Coagulation factor X turned out to be 17000 nM; in test [1] it was 29 nM. In test [2], the Concentration prolonging prothrombin time turned out to be 94 µM.
The corresponding values for `CC(CCc1ccccc1)Nc1c(F)c(Oc2cccc(C(=N)N)c2)nc(Oc2ccc(-c3ccccc3)cc2C(=O)O)c1F` (stereo unspecified) are 17000 nM, 23 nM and 112 µM.
The corresponding values for `CNc1ccc(Oc2nc(Oc3cccc(C(=N)N)c3)c(F)c(NC(C)CCc3ccccc3)c2F)c(C(=O)O)c1` (stereo unspecified) are 8000 nM, 17 nM and 41 µM.
Regarding `CC(CCc1ccccc1)Nc1c(F)c(Oc2cccc(C(=N)N)c2)nc(Oc2ccc(N)cc2C(=O)O)c1F` (stereo unspecified), the IC50 on Coagulation factor X was found to be 11000 nM; in test [1], 79 nM.
For the molecule `CC(CCc1ccccc1)Nc1c(F)c(Oc2cccc(C(=N)N)c2)nc(Oc2ccc(C(=O)NC(C)(C)CO)cc2C(=O)O)c1F` (stereo unspecified), the IC50 against Coagulation factor X came to 59000 nM; in test [1], 16 nM. The same molecule yielded a Concentration prolonging prothrombin time in test [2] of 11 µM.
`Cc1c(F)c(Oc2cccc(C(=N)N)c2)nc(Oc2ccc(N(C)C)cc2C(=O)O)c1F`: in test [1], the concentration for half-maximal inhibition (IC50) came out at 190 nM.
In test [1], `CC(CCc1ccccc1)Nc1c(F)c(Oc2cccc(C(=N)N)c2)nc(Oc2ccc(C(=O)N[C@H](O)C(=O)O)cc2C(=O)O)c1F` (stereo partly specified) displayed an IC50 of 730 nM.
In test [1], `CC(CCc1ccccc1)Nc1c(F)c(Oc2cccc(C(=N)N)c2)nc(Oc2ccc(C(=O)O)cc2C(=O)O)c1F` (stereo unspecified) yielded an IC50 of 200 nM.
Regarding `COc1cccc(CNC(=O)c2ccc(Oc3nc(Oc4cccc(C(=N)N)c4)c(F)c(NC(C)CCc4ccccc4)c3F)c(C(=O)O)c2)c1` (stereo unspecified), the IC50 amounted to 9500 nM against Coagulation factor X and 8 nM in test [1]. The Concentration prolonging prothrombin time in test [2] came to 53 µM.
The corresponding values for `CC(CCc1ccccc1)Nc1c(F)c(Oc2cccc(C(=N)N)c2)nc(Oc2ccc(C(=O)NC(C)C(C)(C)C)cc2C(=O)O)c1F` (stereo unspecified) are 4300 nM, 14 nM and 15 µM.
Turning to `CC(CCc1ccccc1)Nc1c(F)c(Oc2cccc(C(=N)N)c2)nc(Oc2ccc(C(=O)NCCCCO)cc2C(=O)O)c1F` (stereo unspecified), the half-inhibitory concentration (IC50) against Coagulation factor X stood at 20000 nM; in test [1], 67 nM. The Concentration prolonging prothrombin time in test [2] was 16 µM.
Regarding `CCCCN(CCCC)c1ccc(Oc2nc(Oc3cccc(C(=N)N)c3)c(F)c(NC(C)CCc3ccccc3)c2F)c(C(=O)O)c1` (stereo unspecified), in test [1], the IC50 was determined as 36 nM.
